Test: dissolution release of hard shell capsule formulations, USP Basket Method (Apparatus 1)

With CC[C@H](C)C(=O)O[C@H]1C[C@@H](C)C=C2C=C[C@H](C)[C@H](CC[C@@H]3C[C@@H](O)CC(=O)O3)[C@H]21 [lovastatin] the “time in which lovastatin was completely released (in vitro release, FIG. 2)” value (Precirol ATO5 capsule systems containing the fast hydrating Methocel polymers, water with 1% sodium dodecyl sulfate, 37° C., 100 RPM) was 4 h, the “period over which sustained release of lovastatin was obtained (in vitro release, FIG. 2)” value (Precirol ATO5 capsule systems containing the non-hydrating Ethocel, water with 1% sodium dodecyl sulfate, 37° C., 100 RPM) was 24 h and the “rank order of release rate by cellulose polymer (FIG. 1)” value (lovastatin, Compritol 888 capsule system, fastest hydrating polymers gave faster release) was “Methocel K>Methocel E>Ethocel”. The “release of lovastatin by type of cellulosic polymer, compritol formulation” value (lovastatin, compritol, Methocel K100M vs Ethocel P20) was “released considerably faster from a formulation of Methocel K100M than Ethocel P20”, the “release of lovastatin by type of cellulosic polymer, precirol formulation” value (lovastatin/precirol, Methocel K100M vs Ethocel P20) was “faster when the formulation contains Methocel K100M than Ethocel P20” and the “release of lovastatin by type of high melting fatty acid ester” value (same cellulose (methocel) component, prolonged period of about 24 hours) was “fastest with Precirol AT05, slowest with Compritol 888”.

— US6596308B2, “Controlled release pharmaceutical composition” (Kos Pharmaceuticals, Incorporated, priority 2001, dated 2003)
